Results as given in publication PMC10017428, “Structure of VanS from vancomycin-resistant enterococci: A sensor kinase with weak ATP binding” (The Journal of Biological Chemistry, 2023).

Experiments:
VanSA CA domain [1] = target: T1, VanSA CA domain (Enterococcus faecium, UniProt Q06240); test: biochemical
T1 construct: gene vanS

EnvZ CA domain = EnvZ CA domain (Escherichia coli, UniProt P0AEJ4); test: biochemical
VanSC CA domain [2] = target: T2, VanSC CA domain (Enterococcus gallinarum, UniProt Q9KJT3); test: biochemical
T2 sequence (Q9KJT3 208-361): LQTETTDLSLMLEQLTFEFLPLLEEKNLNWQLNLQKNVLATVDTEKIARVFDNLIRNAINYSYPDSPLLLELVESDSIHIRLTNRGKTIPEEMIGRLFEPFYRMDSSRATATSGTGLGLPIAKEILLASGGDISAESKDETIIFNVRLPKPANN

VanSC CA domain [3] = target: T2, VanSC CA domain; test: TNP-ATP displacement, fluorescence; type: binding; conditions: 50 mM Tris-Cl pH 7.5, 50 mM KCl, 5 mM MgCl2, 10 μM TNP-ATP; competitive
VanSA CA domain [4] = target: T1, VanSA CA domain; test: TNP-ATP displacement, fluorescence; type: binding; conditions: 50 mM Tris-Cl pH 7.5, 50 mM KCl, 5 mM MgCl2, 10 μM TNP-ATP; competitive

T1 sequence (Q06240 221-384): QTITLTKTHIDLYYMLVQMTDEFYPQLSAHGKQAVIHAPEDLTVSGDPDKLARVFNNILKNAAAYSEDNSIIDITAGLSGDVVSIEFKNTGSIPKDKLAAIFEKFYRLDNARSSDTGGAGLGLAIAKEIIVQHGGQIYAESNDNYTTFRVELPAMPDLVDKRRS
EnvZ CA domain, sequence (P0AEJ4 289-450): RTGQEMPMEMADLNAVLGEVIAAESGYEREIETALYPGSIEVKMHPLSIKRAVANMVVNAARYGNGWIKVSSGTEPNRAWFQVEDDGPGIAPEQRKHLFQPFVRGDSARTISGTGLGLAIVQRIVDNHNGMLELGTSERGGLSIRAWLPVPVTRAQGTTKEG

Nc1ncnc2c1ncn2[C@@H]1O[C@H](COP(=O)(O)OP(=O)(O)OP(=O)(O)O)[C@@H](O)[C@H]1O [ATP]
Kd (VanSA CA domain [1]): 3.948 ± 0.001 mM
Kd (EnvZ CA domain): 83.3 ± 0.2 µM
Kd (VanSC CA domain [2]): 3.128 ± 0.0004 mM

Nc1nc2c(ncn2[C@@H]2O[C@H](COP(=O)(O)OP(=O)(O)OP(=O)(O)O)[C@@H](O)[C@H]2O)c(=O)[nH]1 [GTP]
TNP-ATP displacement, fluorescence (VanSC CA domain [3]): GTP bound less tightly than ATP to both VanSA and VanSC
TNP-ATP displacement, fluorescence (VanSA CA domain [4]): GTP bound less tightly than ATP to both VanSA and VanSC
